In patent publication US12691112B2, “FGFR tyrosine kinase inhibitors for the treatment of urothelial carcinoma” (Janssen Pharmaceutica NV, priority 2019, dated 2026):
Where “and” joins values, the source holds several entries; their conditions need not be identical. Equal values may be shown once. Read-outs that look alike come from different tables or passages of the source.

Test system: metastatic or surgically unresectable urothelial cancer harboring select FGFR genetic alterations
Settings: for Disease control rate (CR + PR + SD) / Inevaluable / Objective response rate (CR + PR) / Progressive disease (PD) / Confirmed complete response (CR) / Confirmed partial response (PR) / 6-month progression-free survival rate (95% CI), among responders / 9-month progression-free survival rate (95% CI), among responders / 12-month progression-free survival rate (95% CI), among responders: chemo relapsed/refractory
Excerpt: The study comprises a Screening Phase (molecular screening at any time prior to first dose and study screening within 30 days of first dose), a treatment phase, and a post-treatment follow-up phase. The treatment phase comprises the period from first dose until the end-of-treatment visit. The follow-up phase extends until the subject has died, withdraws consent, is lost to follow-up, or the end of study, whichever comes first.
Included patients were adults with measurable urothelial cancer per Response Evaluation Criteria in Solid Tumors version 1.1.
Patients were required to have at least 1 FGFR2/FGFR3 mutation or fusion per central lab testing of RNA from formalin-fixed, paraffin-embedded tumor samples, using a custom reverse transcriptase polymerase chain reaction assay.
Patients were contacted every 12 weeks for survival assessment.
The study was designed to enroll 180 patients with specified FGFR alterations. Of these, ≥88 were required in the selected regimen. […] Responses were assessed by investigators and an independent radiological review committee. Progression-free survival and overall survival were estimated using Kaplan-Meier product limit method. Data from patients who were progression free and alive or with unknown status were censored at last tumor assessment. Efficacy end points were analysed at primary analysis cut-off.

[1] = 10 mg 7 on/7 off, Mutation and fusion: FGFR3-S249C/FGFR3-Y373C/FGFR2-CASP7/FGFR3-BAIAP2L1/FGFR3-TACC3 V1/FGFR3-TACC3 V3, n=1
[2] = 10 mg 7 on/7 off, Mutation: FGFR3-G370C/FGFR3-S249C, n=1
[3] = 10 mg 7 on/7 off, Mutation: FGFR3-R248C/FGFR3-Y373C, n=1
[4] = 10 mg 7 on/7 off, Mutation: FGFR3-S249C/FGFR3-Y373C, n=1
[5] = Regimen 1, 10 mg intermittent (n=33)
[6] = Regimen 2, 6 mg continuous (n=78)
[7] = Regimen 3, 8 mg continuous (n=99)
[8] = Total (all 3 regimens), Any FGFR alterations, n=189
[9] = Total (all 3 regimens), FGFR fusions (excluding mutations), 6 responders
[10] = Total (all 3 regimens), FGFR fusions (excluding mutations), n=35
[11] = Total (all 3 regimens), FGFR mutations (excluding fusions), 58 responders
[12] = Total (all 3 regimens), FGFR mutations (excluding fusions), n=147
[13] = Total (all 3 regimens), FGFR mutations and fusions, 4 responders
[14] = Total (all 3 regimens), FGFR mutations and fusions, n=7
[15] = Total (all 3 regimens), Fusion: FGFR2-CASP7/FGFR3-BAIAP2L1, n=1
[16] = Total (all 3 regimens), Fusion: FGFR2-CASP7/FGFR3-TACC3 V3, n=1
[17] = Total (all 3 regimens), Mutation and fusion: FGFR3-G370C/FGFR2-BICC1, n=1
[18] = Total (all 3 regimens), Mutation and fusion: FGFR3-G370C/FGFR3-TACC3 V1, n=1
[19] = Total (all 3 regimens), Mutation and fusion: FGFR3-R248C/FGFR3-S249C/FGFR3-TACC3 V1, n=1
[20] = Total (all 3 regimens), Mutation and fusion: FGFR3-R248C/FGFR3-TACC3 V1, n=2
[21] = Total (all 3 regimens), Mutation and fusion: FGFR3-S249C/FGFR3-BAIAP2L1, n=1
[22] = Total (all 3 regimens), Mutation and fusion: FGFR3-S249C/FGFR3-Y373C/FGFR2-CASP7/FGFR3-BAIAP2L1/FGFR3-TACC3 V1/FGFR3-TACC3 V3, n=1
[23] = Total (all 3 regimens), Mutation: FGFR3-G370C/FGFR3-S249C, n=2
[24] = Total (all 3 regimens), Mutation: FGFR3-R248C/FGFR3-Y373C, n=2
[25] = Total (all 3 regimens), Mutation: FGFR3-S249C/FGFR3-Y373C, n=1

COc1cc(OC)cc(N(CCNC(C)C)c2ccc3ncc(-c4cnn(C)c4)nc3c2)c1 [erdafitinib, N-(3,5-dimethoxy-phenyl)-N′-(1-methylethyl)-N-[3-(1-methyl-1H-pyrazol-4-yl)quinoxalin-6-yl]ethane-1,2-diamine]
Disease control rate (CR + PR + SD) [1]: 1 (100.0%) | Inevaluable [1]: 0% | Objective response rate (CR + PR) [1]: 0% | Progressive disease (PD) [1]: 0% | Confirmed complete response (CR) [2]: 0% | Confirmed partial response (PR) [2]: 1 (100.0%) | Disease control rate (CR + PR + SD) [2]: 1 (100.0%) | Inevaluable [2]: 0% | Objective response rate (CR + PR) [2]: 1 (100.0%) | Progressive disease (PD) [2]: 0% | Confirmed complete response (CR) [3]: 0% | Confirmed partial response (PR) [3]: 1 (100.0%) | Disease control rate (CR + PR + SD) [3]: 1 (100.0%) | Inevaluable [3]: 0% | Objective response rate (CR + PR) [3]: 1 (100.0%) | Progressive disease (PD) [3]: 0% | Confirmed complete response (CR) [4]: 0% | Confirmed partial response (PR) [4]: 0% | Disease control rate (CR + PR + SD) [4]: 1 (100.0%) | Inevaluable [4]: 0% | Objective response rate (CR + PR) [4]: 0% | Progressive disease (PD) [4]: 0% | Complete response per investigator assessment [5]: 1 (3) % | Not evaluable or unknown per investigator assessment [5]: 2 (6) % | Objective response rate per investigator assessment [5]: 7 (21) % | Partial response per investigator assessment [5]: 6 (18) % | Progressive disease per investigator assessment [5]: 6 (18) % | Stable disease per investigator assessment [5]: 18 (55) % | Objective response rate per investigator assessment (Regimen 1, 10 mg intermittent, liver metastases): 3/11 (27) % | Complete response per investigator assessment [6]: 3 (4) % | Not evaluable or unknown per investigator assessment [6]: 5(6) % | Objective response rate per investigator assessment [6]: 27 (35) % | Partial response per investigator assessment [6]: 24 (31) % | Progressive disease per investigator assessment [6]: 16 (21) % | Objective response rate per investigator assessment (Regimen 2, 6 mg continuous, bone metastases): 6/15 (40) % | Not evaluable or unknown per investigator assessment [7]: 2 (2.0) % | Objective response rate per investigator assessment [7]: 40.4% and 40% and 40 (40.4) % | Partial response per investigator assessment [7]: 37 (37.4) % | Progressive disease per investigator assessment [7]: 18 (18.2) % | Stable disease per investigator assessment [7]: 39% and 39 (39.4) % | Objective response rate per investigator assessment (Regimen 3, 8 mg continuous, with FGFR3 mutations (n=74)): 48.6% and 36/74 (48.6) % | Median DoR (95% CI), investigator assessment (Regimen 3, chemotherapy-refractory patients, N = 87): 5.55 (4.21, 7.00) months | Confirmed complete response (CR) [8]: 7 (3.7%) | Confirmed partial response (PR) [8]: 61 (32.3%) | Disease control rate (CR + PR + SD) [8]: 147 (77.8%) | Inevaluable [8]: 8 (4.2%) | Objective response rate (CR + PR) [8]: 68 (36.0%) | Progressive disease (PD) [8]: 34 (18.0%) | 6-month progression-free survival rate (95% CI), among responders [9]: 0.50 (0.11, 0.80) | 9-month progression-free survival rate (95% CI), among responders [9]: 0.50 (0.11, 0.80) | 12-month progression-free survival rate (95% CI), among responders [9]: 0.50 (0.11, 0.80) | Confirmed complete response (CR) [10]: 0% | Confirmed partial response (PR) [10]: 6 (17.1%) | Disease control rate (CR + PR + SD) [10]: 25 (71.4%) | Inevaluable [10]: 2 (5.7%) | Objective response rate (CR + PR) [10]: 6 (17.1%) | Progressive disease (PD) [10]: 8 (22.9%) | 6-month progression-free survival rate (95% CI), among responders [11]: 0.45 (0.32, 0.58) | 9-month progression-free survival rate (95% CI), among responders [11]: 0.29 (0.17, 0.42) | 12-month progression-free survival rate (95% CI), among responders [11]: 0.22 (0.12, 0.35) | Confirmed complete response (CR) [12]: 6 (4.1%) | Confirmed partial response (PR) [12]: 52 (35.4%) | Disease control rate (CR + PR + SD) [12]: 117 (79.6%) | Inevaluable [12]: 5 (3.4%) | Objective response rate (CR + PR) [12]: 58 (39.5%) | Progressive disease (PD) [12]: 25 (17.0%) | 6-month progression-free survival rate (95% CI), among responders [13]: 0.50 (0.06, 0.84) | 9-month progression-free survival rate (95% CI), among responders [13]: 0.50 (0.06, 0.84) | 12-month progression-free survival rate (95% CI), among responders [13]: 0.25 (0.01, 0.67) | Confirmed complete response (CR) [14]: 1 (14.3%) | Confirmed partial response (PR) [14]: 3 (42.9%) | Disease control rate (CR + PR + SD) [14]: 5 (71.4%) | Inevaluable [14]: 1 (14.3%) | Objective response rate (CR + PR) [14]: 4 (57.1%) | Progressive disease (PD) [14]: 1 (14.3%) | Confirmed complete response (CR) [15]: 0% | Confirmed partial response (PR) [15]: 0% | Disease control rate (CR + PR + SD) [15]: 1 (100.0%) | Inevaluable [15]: 0% | Objective response rate (CR + PR) [15]: 0% | Progressive disease (PD) [15]: 0% | Confirmed complete response (CR) [16]: 0% | Confirmed partial response (PR) [16]: 0% | Disease control rate (CR + PR + SD) [16]: 0% | Inevaluable [16]: 1 (100.0%) | Objective response rate (CR + PR) [16]: 0% | Progressive disease (PD) [16]: 0% | Confirmed complete response (CR) [17]: 1 (100.0%) | Confirmed partial response (PR) [17]: 0% | Disease control rate (CR + PR + SD) [17]: 1 (100.0%) | Inevaluable [17]: 0% | Objective response rate (CR + PR) [17]: 1 (100.0%) | Progressive disease (PD) [17]: 0% | Confirmed complete response (CR) [18]: 0% | Confirmed partial response (PR) [18]: 1 (100.0%) | Disease control rate (CR + PR + SD) [18]: 1 (100.0%) | Inevaluable [18]: 0% | Objective response rate (CR + PR) [18]: 1 (100.0%) | Progressive disease (PD) [18]: 0% | Confirmed complete response (CR) [19]: 0% | Confirmed partial response (PR) [19]: 1 (100.0%) | Disease control rate (CR + PR + SD) [19]: 1 (100.0%) | Inevaluable [19]: 0% | Objective response rate (CR + PR) [19]: 1 (100.0%) | Progressive disease (PD) [19]: 0% | Confirmed complete response (CR) [20]: 0% | Confirmed partial response (PR) [20]: 1 (50.0%) | Disease control rate (CR + PR + SD) [20]: 1 (50.0%) | Inevaluable [20]: 1 (50.0%) | Objective response rate (CR + PR) [20]: 1 (50.0%) | Progressive disease (PD) [20]: 0% | Confirmed complete response (CR) [21]: 0% | Confirmed partial response (PR) [21]: 0% | Disease control rate (CR + PR + SD) [21]: 0% | Inevaluable [21]: 0% | Objective response rate (CR + PR) [21]: 0% | Progressive disease (PD) [21]: 1 (100.0%) | Confirmed complete response (CR) [22]: 0% | Confirmed partial response (PR) [22]: 0% | Disease control rate (CR + PR + SD) [22]: 1 (100.0%) | Inevaluable [22]: 0% | Objective response rate (CR + PR) [22]: 0% | Progressive disease (PD) [22]: 0% | Confirmed complete response (CR) [23]: 0% | Confirmed partial response (PR) [23]: 1 (50.0%) | Disease control rate (CR + PR + SD) [23]: 2 (100.0%) | Inevaluable [23]: 0% | Objective response rate (CR + PR) [23]: 1 (50.0%) | Progressive disease (PD) [23]: 0% | Confirmed complete response (CR) [24]: 0% | Confirmed partial response (PR) [24]: 2 (100.0%) | Disease control rate (CR + PR + SD) [24]: 2 (100.0%) | Inevaluable [24]: 0% | Objective response rate (CR + PR) [24]: 2 (100.0%) | Progressive disease (PD) [24]: 0% | Confirmed complete response (CR) [25]: 0% | Confirmed partial response (PR) [25]: 0% | Disease control rate (CR + PR + SD) [25]: 1 (100.0%) | Inevaluable [25]: 0% | Objective response rate (CR + PR) [25]: 0% | Progressive disease (PD) [25]: 0%
